Results from US12257280B2, “Composition for preventing or treating muscular diseases, containing, as active ingredient, Glycyrrhiza uralensis extract or compound isolated therefrom” (NEO CREMAR CO., LTD., priority 2019, dated 2025).

Columns and labels:
[1] = tested on: C2C12 cells; test: Myoblast proliferation verification (MTT assay) in C2C12 cells; assay type: cell-based, mouse; settings: for increased proliferation of cells compared to untreated cells: isolated final compounds, 0.5 ng/ml, 1 day, MTT (FIG. 7a)
Experimental: C2C12 cells, a mouse myoblast cell line, were cultured in Dulbecco's Modified Eagle's Medium (DMEM) containing 10% Fetal bovine serum (FBS) and 1% Penicillin/streptomycin (P/S).
To verify cell proliferation, the cell culture medium was removed and the cells was washed with DMEM, and then 500 μl of MTT reagent (0.5 mg/ml) dissolved in phosphate buffered saline (PBS) was added to each well and left for 1 hour at 37° C. The reaction solution was removed and 1000 μl of dimethyl sulfoxide (DMSO) was added to each well. Purple formazan crystals were completely dissolved in DMSO and absorbance was measured at 540 nm.

[2] = tested on: C2C12 cells; test: Differentiation of myoblasts into myotubes (Giemsa stain, fusion index); assay type: cell-based, mouse
Experimental: The medium was changed every 2 days and the cells were cultured at 37° C. The medium of the cells was removed and the cells were washed with PBS. After washing, a 1:1 volume ratio of methanol:PBS was treated and then fixed for 2 minutes. Additionally, a 2:1 volume ratio of methanol:PBS reagent was added, followed by further fixation for 2 minutes. After 2 minutes, 0.04% Giemsa reagent was added, allowed to stand for 30 minutes, washed with PBS after 30 minutes, and then the appearance of the cells was observed under a microscope, and three photos of the cells were taken (300×). In the photographs taken, the number of fused nuclei in the myotube cells was counted, the total number of nuclei was counted, and the number of fused nuclei was divided by the total number of nuclei to calculate % value.

[3] = tested on: C57BL/6 mice; test: Muscle regeneration effect in mice with or without cardiotoxin (CTX) injection into gastrocnemius muscle; assay type: in vivo, mouse
Experimental: In order to observe the muscle regeneration effect according to the treatment of hot water extract of licorice or the final substance liquiritigenin, the mice were ingested with licorice hot water extract or liquiritigenin and Cardiotoxin (CTX) was/was not injected into the muscle and then the morphology and regeneration of the muscles were observed. C57BL/6 mice were ingested with licorice hot water extract (100 mg/kg) or liquiritigenin (15 mg/kg) and […] cardiotoxin was injected into the gastrocnemius muscle. After cardiotoxin injection, licorice hot water extract or liquiritigenin was ingested every day, and muscle tissue was sampled 7 days after non-injection or injection of cardiotoxin. The diameter (μm) of the muscle secured 7 days after non-injection or injection of cardiotoxin was measured using an image J program.

[4] = purchased compounds, 0.25 ng/ml (FIG. 7c)
[5] = isolated final compounds, 0.25 ng/ml (FIG. 7b)
[6] = purchased compound, 15 mg/kg ingested daily

Row | Compound | increased proliferation of cells compared to untreated cells [1] | proliferation of cells increased compared to non-treated cells [1, 4] | myotube formation and fusion index increase [2, 5] | myotube formation and fusion index increase ([2]; purchased compounds (FIG. 7d)) | diameter of the regenerated muscle ([3]; 15 mg/kg, CTX-injected, 7 days, not ingested 78±4) | muscle diameter (muscle fiber size) ([3]; 15 mg/kg, second pair of values, apparently non-injected muscle, not ingested 124±4) | body and gastrocnemius muscle weights vs non-treated controls [3, 6] | muscle mass reductions vs non-treated controls [3, 6] | proliferation of cells increased compared to non-treated cells ([1]; purchased compound, 1 ng/ml (FIG. 7c))
1 | O=C1C[C@@H](c2ccc(O)cc2)Oc2cc(O)ccc21 [liquiritigenin, Liquiritigenin] | 10% | 5% | 13% | 20% | 91±3 μm | 139±4 μm | similar | less | 
2 | COc1c(/C=C/C(=O)c2ccc(O)c(O)c2)ccc(O)c1O [tetrahydroxymethoxychalcone, Tetrahydroxy methoxychalcone] | 8% | 5% | 28% | 23% |  |  |  |  | 
3 | COc1c(/C=C/C(=O)c2ccc(O)cc2)ccc(O)c1O [licochalcone B, Licochalcone B] | 11% |  | 19% | 20% |  |  |  |  | 11%
